Reference: ChEMBL document CHEMBL5291721, “A preclinical secondary pharmacology resource illuminates target-adverse drug reaction associations of marketed drugs” (Nat Commun, 2023)

Key:
Histamine H2 receptor = Histamine H2 receptor (Homo sapiens, UniProt P25021); format: functional, cell-based
[1] = molecular target: Beta-2 adrenergic receptor (Homo sapiens, UniProt P07550)
[2] = molecular target: T1, Amine oxidase [flavin-containing] A (Homo sapiens, UniProt P21397); format: functional
T1 sequence (P21397 whole entry): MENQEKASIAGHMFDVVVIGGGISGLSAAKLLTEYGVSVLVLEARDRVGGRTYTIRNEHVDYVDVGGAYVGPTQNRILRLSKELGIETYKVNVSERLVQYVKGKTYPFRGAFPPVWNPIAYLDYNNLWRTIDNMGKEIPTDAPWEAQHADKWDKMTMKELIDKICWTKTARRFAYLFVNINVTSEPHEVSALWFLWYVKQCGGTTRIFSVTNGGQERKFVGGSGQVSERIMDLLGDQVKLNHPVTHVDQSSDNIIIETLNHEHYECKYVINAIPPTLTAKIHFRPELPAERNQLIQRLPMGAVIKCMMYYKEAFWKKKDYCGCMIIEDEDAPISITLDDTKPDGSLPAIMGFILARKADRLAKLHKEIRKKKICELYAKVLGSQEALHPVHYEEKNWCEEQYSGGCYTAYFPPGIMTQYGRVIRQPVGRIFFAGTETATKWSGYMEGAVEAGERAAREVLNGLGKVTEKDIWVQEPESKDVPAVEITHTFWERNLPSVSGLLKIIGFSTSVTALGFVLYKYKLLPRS

[3] = molecular target: cGMP-inhibited 3',5'-cyclic phosphodiesterase 3A (Homo sapiens, UniProt Q14432); format: functional
[4] = molecular target: T2, Alpha-2A adrenergic receptor (Homo sapiens, UniProt P08913); format: functional, cell-based
T2 sequence (P08913 whole entry): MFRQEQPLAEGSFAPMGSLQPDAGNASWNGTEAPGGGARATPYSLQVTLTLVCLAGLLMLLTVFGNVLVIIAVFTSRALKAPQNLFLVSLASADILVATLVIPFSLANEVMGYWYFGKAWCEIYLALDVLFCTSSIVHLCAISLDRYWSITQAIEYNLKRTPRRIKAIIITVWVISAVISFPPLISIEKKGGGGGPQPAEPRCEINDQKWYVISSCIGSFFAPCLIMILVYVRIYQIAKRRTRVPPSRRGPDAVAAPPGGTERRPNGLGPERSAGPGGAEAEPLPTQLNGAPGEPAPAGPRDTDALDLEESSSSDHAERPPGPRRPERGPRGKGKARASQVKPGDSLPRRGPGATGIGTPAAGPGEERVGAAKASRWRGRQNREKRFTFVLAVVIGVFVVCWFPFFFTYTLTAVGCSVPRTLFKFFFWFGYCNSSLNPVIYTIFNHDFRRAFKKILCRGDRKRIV

[5] = molecular target: Sodium-dependent noradrenaline transporter (Homo sapiens, UniProt P23975)
Motilin receptor = Motilin receptor (Homo sapiens, UniProt O43193)
[6] = molecular target: T3, 5-hydroxytryptamine receptor 2C (Homo sapiens, UniProt P28335)
T3 sequence (P28335 whole entry): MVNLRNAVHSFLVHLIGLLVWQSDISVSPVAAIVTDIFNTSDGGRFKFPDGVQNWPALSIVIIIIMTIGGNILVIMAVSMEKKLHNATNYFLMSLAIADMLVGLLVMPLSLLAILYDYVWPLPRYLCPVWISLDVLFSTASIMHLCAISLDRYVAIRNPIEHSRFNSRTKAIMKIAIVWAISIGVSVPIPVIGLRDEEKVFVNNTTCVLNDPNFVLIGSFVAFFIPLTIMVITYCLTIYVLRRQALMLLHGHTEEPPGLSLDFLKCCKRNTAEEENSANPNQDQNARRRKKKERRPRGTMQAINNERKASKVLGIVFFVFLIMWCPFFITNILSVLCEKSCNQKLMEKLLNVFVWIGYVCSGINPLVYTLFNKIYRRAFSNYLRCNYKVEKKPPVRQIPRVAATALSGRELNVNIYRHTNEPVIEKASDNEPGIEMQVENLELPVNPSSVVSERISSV

B2 bradykinin receptor = molecular target: T4, B2 bradykinin receptor (Homo sapiens, UniProt P30411)
T4 sequence (P30411 whole entry): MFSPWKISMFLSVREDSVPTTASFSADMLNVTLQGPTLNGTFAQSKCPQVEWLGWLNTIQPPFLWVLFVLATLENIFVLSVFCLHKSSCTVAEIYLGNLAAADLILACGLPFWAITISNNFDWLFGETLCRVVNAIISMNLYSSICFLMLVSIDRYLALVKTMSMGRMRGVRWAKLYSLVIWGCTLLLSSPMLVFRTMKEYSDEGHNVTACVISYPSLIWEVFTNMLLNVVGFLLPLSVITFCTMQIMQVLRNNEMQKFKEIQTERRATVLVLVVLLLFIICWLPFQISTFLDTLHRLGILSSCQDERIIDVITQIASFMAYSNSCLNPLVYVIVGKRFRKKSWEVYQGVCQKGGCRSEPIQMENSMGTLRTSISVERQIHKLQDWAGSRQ

Estrogen receptor = molecular target: T5, Estrogen receptor (Homo sapiens, UniProt P03372)
T5 sequence (P03372 whole entry): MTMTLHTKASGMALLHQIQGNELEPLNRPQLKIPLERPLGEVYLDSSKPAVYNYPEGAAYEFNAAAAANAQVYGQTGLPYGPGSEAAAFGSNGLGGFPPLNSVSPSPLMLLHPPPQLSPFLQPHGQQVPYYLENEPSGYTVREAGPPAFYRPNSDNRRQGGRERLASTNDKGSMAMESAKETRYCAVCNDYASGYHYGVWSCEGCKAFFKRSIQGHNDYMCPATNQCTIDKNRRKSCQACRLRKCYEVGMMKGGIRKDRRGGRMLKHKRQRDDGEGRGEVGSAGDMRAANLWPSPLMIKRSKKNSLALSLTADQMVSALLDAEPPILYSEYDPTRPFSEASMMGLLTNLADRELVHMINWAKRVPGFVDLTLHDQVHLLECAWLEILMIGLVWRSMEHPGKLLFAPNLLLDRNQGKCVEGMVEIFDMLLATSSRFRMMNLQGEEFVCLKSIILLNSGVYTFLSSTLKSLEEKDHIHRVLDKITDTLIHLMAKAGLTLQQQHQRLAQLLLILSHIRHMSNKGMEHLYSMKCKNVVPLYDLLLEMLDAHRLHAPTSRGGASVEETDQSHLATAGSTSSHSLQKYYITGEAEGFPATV

[7] = molecular target: Sodium-dependent dopamine transporter (Homo sapiens, UniProt Q01959)
Adenosine receptor A2a = Adenosine receptor A2a (Homo sapiens, UniProt P29274)
Further: assay procedure not described here.

Sequence of Motilin receptor (O43193 whole entry): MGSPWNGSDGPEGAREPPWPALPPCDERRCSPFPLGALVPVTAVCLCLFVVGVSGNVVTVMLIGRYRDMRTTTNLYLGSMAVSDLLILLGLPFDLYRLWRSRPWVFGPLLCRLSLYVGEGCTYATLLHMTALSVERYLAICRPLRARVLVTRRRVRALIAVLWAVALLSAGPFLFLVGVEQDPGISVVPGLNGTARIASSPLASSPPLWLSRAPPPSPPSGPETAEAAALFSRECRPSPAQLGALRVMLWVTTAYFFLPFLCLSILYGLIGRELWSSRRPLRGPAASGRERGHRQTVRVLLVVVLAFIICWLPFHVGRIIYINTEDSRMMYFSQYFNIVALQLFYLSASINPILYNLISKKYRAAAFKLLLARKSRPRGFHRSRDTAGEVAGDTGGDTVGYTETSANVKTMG
Sequence of cGMP-inhibited 3',5'-cyclic phosphodiesterase 3A (Q14432 whole entry): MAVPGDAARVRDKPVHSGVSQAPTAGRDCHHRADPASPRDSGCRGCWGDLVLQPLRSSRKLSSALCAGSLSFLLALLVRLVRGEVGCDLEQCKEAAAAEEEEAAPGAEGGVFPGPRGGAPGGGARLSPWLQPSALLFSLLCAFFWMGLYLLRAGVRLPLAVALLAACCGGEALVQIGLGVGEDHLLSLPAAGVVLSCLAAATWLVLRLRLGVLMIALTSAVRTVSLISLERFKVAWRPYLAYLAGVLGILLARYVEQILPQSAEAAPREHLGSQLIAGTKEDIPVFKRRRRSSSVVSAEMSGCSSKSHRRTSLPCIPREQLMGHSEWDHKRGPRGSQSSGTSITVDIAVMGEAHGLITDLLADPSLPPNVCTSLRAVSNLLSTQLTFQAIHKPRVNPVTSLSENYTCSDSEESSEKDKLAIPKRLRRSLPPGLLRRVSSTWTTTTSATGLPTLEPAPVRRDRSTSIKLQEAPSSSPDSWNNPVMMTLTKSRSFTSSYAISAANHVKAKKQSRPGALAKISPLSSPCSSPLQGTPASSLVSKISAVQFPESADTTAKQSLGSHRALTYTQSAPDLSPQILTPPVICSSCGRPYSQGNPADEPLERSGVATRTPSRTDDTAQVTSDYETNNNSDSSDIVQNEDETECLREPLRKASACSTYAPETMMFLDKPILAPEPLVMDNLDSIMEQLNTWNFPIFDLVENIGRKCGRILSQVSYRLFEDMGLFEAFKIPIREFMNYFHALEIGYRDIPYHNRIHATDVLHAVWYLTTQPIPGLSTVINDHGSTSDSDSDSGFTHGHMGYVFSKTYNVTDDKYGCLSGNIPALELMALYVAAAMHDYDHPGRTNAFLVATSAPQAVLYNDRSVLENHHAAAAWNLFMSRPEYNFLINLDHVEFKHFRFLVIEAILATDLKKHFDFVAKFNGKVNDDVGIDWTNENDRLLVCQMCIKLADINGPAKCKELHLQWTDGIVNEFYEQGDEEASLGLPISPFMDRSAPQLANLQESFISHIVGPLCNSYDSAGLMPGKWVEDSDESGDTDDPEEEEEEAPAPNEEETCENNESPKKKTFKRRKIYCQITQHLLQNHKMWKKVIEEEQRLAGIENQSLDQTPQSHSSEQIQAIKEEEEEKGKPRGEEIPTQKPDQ
Sequence of Sodium-dependent noradrenaline transporter (P23975 whole entry): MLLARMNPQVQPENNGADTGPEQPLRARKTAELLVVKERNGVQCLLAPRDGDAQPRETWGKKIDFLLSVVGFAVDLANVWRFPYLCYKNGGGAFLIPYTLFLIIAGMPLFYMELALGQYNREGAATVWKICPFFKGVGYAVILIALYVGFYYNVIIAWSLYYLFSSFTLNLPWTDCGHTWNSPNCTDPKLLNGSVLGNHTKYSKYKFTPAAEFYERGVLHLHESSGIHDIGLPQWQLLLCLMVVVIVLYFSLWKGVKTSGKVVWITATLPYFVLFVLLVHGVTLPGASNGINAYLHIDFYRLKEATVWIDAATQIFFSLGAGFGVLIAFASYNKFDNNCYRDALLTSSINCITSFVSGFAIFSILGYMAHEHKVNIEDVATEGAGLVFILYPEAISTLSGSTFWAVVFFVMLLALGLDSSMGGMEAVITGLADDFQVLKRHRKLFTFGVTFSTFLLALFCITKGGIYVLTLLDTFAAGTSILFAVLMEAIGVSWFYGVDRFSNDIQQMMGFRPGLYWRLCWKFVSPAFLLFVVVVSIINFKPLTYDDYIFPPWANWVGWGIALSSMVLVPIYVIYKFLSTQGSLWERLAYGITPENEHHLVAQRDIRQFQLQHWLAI
Sequence of Adenosine receptor A2a (P29274 whole entry): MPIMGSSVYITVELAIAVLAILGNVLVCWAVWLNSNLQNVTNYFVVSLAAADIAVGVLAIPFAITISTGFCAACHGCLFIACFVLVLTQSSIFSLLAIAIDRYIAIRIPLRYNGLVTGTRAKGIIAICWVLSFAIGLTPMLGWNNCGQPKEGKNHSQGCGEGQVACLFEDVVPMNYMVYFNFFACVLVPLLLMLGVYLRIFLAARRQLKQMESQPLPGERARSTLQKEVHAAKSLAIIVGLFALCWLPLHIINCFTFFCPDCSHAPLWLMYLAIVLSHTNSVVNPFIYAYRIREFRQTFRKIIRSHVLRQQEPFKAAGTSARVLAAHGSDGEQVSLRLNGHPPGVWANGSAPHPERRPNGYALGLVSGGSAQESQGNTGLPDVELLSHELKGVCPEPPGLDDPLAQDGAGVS
Sequence of Beta-2 adrenergic receptor (P07550 whole entry): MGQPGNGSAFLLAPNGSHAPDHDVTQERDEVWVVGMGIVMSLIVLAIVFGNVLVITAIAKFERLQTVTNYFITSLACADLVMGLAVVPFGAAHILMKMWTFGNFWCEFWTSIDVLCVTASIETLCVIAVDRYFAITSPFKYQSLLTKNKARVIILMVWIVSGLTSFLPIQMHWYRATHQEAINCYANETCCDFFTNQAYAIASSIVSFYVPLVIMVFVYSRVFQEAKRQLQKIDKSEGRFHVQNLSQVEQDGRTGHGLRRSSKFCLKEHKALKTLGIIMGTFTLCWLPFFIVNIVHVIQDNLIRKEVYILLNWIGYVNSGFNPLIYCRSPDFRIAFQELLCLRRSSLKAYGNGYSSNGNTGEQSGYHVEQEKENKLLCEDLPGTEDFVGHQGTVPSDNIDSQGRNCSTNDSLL
Sequence of Histamine H2 receptor (P25021 whole entry): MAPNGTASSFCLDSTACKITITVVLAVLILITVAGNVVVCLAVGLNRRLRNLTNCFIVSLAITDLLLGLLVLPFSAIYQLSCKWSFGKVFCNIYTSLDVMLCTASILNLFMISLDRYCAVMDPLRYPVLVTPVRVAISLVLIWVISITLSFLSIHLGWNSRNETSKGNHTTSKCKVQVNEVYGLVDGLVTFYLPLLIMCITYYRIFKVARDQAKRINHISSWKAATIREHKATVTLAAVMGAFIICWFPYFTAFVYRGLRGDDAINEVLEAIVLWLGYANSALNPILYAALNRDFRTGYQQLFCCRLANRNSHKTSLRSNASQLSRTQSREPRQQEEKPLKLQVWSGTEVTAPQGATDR
Sequence of Sodium-dependent dopamine transporter (Q01959 whole entry): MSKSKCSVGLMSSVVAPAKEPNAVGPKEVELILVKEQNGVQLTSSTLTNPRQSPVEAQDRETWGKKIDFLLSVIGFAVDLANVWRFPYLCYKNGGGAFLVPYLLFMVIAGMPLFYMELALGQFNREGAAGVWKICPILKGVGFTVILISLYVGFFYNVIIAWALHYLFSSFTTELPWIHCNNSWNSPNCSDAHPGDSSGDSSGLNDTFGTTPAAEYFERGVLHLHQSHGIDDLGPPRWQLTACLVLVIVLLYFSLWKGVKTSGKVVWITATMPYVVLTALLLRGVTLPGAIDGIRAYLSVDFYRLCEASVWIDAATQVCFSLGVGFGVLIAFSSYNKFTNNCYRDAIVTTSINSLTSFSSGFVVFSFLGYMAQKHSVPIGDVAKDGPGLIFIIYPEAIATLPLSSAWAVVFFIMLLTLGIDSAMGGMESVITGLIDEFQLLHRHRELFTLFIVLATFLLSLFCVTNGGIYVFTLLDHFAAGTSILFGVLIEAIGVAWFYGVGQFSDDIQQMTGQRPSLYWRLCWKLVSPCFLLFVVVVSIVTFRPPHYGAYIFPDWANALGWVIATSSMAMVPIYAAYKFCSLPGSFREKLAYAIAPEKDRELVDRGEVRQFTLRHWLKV

SMILES | AC50 (Histamine H2 receptor) [µM] | AC50 [1] [µM] | AC50 [2] [µM] | AC50 [3] [µM] | AC50 [4] [µM] | AC50 [5] [µM] | AC50 (Motilin receptor) [µM] | AC50 [6] [µM] | AC50 (B2 bradykinin receptor) [µM] | AC50 (Estrogen receptor) [µM] | AC50 [7] [µM] | AC50 (Adenosine receptor A2a) [µM]
CN1CC(=O)N2[C@H](c3ccc4c(c3)OCO4)c3[nH]c4ccccc4c3C[C@@H]2C1=O | > 10 | > 10 | > 10 | > 30 | > 10 | > 30 | > 10 | > 30 | > 30 | > 30 | > 30 | > 30
O=C(C[S+]([O-])C(c1ccccc1)c1ccccc1)NO (centres undefined) | > 30 | > 30 | > 30 | > 10 | > 30 | > 30 | > 30 | > 30 | > 30 | > 30 | 9.4 | > 30
CC(=O)OCC(=O)[C@@]12OC3(CCCC3)O[C@@H]1C[C@H]1[C@@H]3CCC4=CC(=O)C=C[C@]4(C)[C@@]3(F)[C@@H](O)C[C@@]12C [AMCINONIDE] | > 10 | > 10 | > 10 | > 30 | > 10 | > 10 | > 10 | > 30 | > 10 | > 30 | > 10 | > 10
CN1CCc2cccc3c2[C@H]1Cc1ccc(O)c(O)c1-3 [APOMORPHINE] | > 10 | > 10 | > 10 | > 30 | 3.8 | > 30 | > 10 | 7.3 | > 30 | 1.47 | > 30 | > 30
CN1C(=O)COc2c(C(=O)NC3CN4CCC3CC4)cc(Cl)cc21 (centres undefined) [AZASETRON] | > 30 | > 30 | > 30 | > 10 | > 30 | > 30 | > 30 | > 30 | > 30 | > 30 | > 30 | > 30
NC(CO)C(=O)NNCc1ccc(O)c(O)c1O (centres undefined) [BENSERAZIDE] | > 10 | > 10 | > 10 | > 30 | > 10 | > 30 | > 10 | > 30 | > 30 | 1.72 | > 30 | > 30
Cc1cc2c(OCC(CNC(C)(C)C)OC(=O)c3ccccc3)cccc2[nH]1 (centres undefined) [BOPINDOLOL] | > 30 | 0.0064 | > 30 | > 30 | > 30 | 10.3 | 23 | > 30 | > 30 | > 30 | 12 | > 30
